Experimental data: patent US11730795B2, “Pharmaceuticals and dosing means for human aging reversal” (INTERVENE IMMUNE, INC., priority 2017, dated 2023)

How the values were obtained:
insulin = format: in vivo, human; conditions: for control of GH-induced hyperinsulinemia by single agent: each agent alone with GH
Excerpt: (§1) Data variability was minimized and controlled by using each volunteer as their own control, and by standardizing the time and day of blood sampling. Blood was generally collected between 7 AM and 10 AM to avoid the effects of circadian and other temporal influences. In addition, patients standardized their pre-testing evening meal, used consistent testing sites and methods, and were redundantly tested between pre-established time points in some cases. All volunteers were asked to take supplements of 3000 IU vitamin D3 and 50 mg of elemental zinc daily. Further, volunteers were instructed not to consume food or alcohol within 4 hours of medication administration.
(§2) The initial dose of GH was 0.015 mg/kg, injected subcutaneously into superficial abdominal fat using a provided “pen” injector designed for this purpose. GH doses were varied over the time course described above so as to maximize IGF1, and were not adjusted for any changes in body weight.
Here, for context, insulin blood levels are expressed as a fraction of the distance from the bottom of the normal range to the top of the normal range. Although insulin control was not perfect, the final increase in insulin at trial end was acceptable based on volunteers averaging about one fifth of the upper limit for insulin. […] . Insulin and the normal insulin range were as reported by Quest Diagnostics.

prostate = assay: Report of one individual: prostatic hypertrophy with DHEA; format: in vivo, human
Excerpt: Accordingly, our results, methods, and medication compositions and combinations enable beneficial new treatments to improve human health and enable beneficial new drug indications.

[1] = 50 mg per day, 65-75 year old men, no GH, ref [46]; cited from earlier work
[2] = TRIIM trial: testosterone levels and benign prostatic hypertrophy under DHEA; conditions: with GH or GH plus metformin
Excerpt: Nine normal, putatively healthy 50-65 year-old male volunteers with normal age-related thymic involution were enrolled in and completed a clinical study performed under an IND from the US Food and Drug Administration and separate supervision from a California Institutional Review Board. […] The TRIIM trial (standing for Thymus Regeneration, Immunorestoration, and Insulin Mitigation) treatment period was limited to 12 months. Exclusion criteria included GH use in the prior 10 years, carpal tunnel syndrome, malignancies or high risk of malignancy, BMI greater than 30, PSA above the age-adjusted range, symptomatic prostatic hypertrophy, unstable metabolic disorders, unstable cardiovascular disorders, elevated levels of inflammatory markers, alcoholism, allergy to study medications, cognitive impairment, abnormal metabolic or hormonal results, existing type 1 or type 2 diabetes, or other unstable medical conditions.

[3] = Tolerability of high metformin doses; format: in vivo, human
Experimental: We were able to use higher doses with minimal to no difficulty by devising the following dosing methods.
In these methods, “dinner” need not be taken literally, the essence of the concept being to essentially administer a large virtual dose by combining two smaller doses that are administered within an effective time span, which may be 1-5 hours in duration, but preferably 1-2 hours in duration, to reduce side effects such as gastric distress while still enabling increased control of hyperinsulinemia.

epigenetic age = conditions: women, ref [35]; cited from earlier work
CD4/CD8 cell ratio = assay: TRIIM trial: CD4/CD8 cell ratio; format: in vivo, human; conditions: peak at 3, 6-9 or 12 months in different men; one non-responder
Excerpt: as §1, §2
The decline of CD4/CD8 cell ratio with aging is a classical indication of the “immune risk phenotype” or immunosenescence, and appears to occur with or without chronic viral exposure and has been a strong predictor of the short-term risk of death. Our results therefore indicate that prior art methods of regenerating the thymus require improvement. […]

Molecule	control of GH-induced hyperinsulinemia by single agent (insulin)	prostatic hypertrophy (prostate; DHEA alone or in combination with metformin)	prostatic hypertrophy (prostate; DHEA in combination with both metformin and GH)	glucose tolerance [1]	raising of testosterone levels ([2]; doses up to 200 mg)	induction of benign prostatic hypertrophy [2]	control of GH-induced hyperinsulinemia (insulin; 850-1200 mg metformin, morning after GH dose, even with DHEA)	tolerability ([3]; 500 mg with dinner plus 1000 mg with HGH and DHEA, total 1500 mg)	tolerability ([3]; 1500 mg at dinner plus 1000 mg with DHEA and HGH at bedtime, 2500 mg)	tolerability ([3]; 1500 or 2000 mg in one dose with GH at bedtime)	effect on epigenetic aging (epigenetic age)	course of CD4/CD8 cell ratio (CD4/CD8 cell ratio)	insulin level with GH alone (insulin; in vivo)
C[C@]12CC[C@H](O)CC1=CC[C@@H]1[C@@H]2CC[C@]2(C)C(=O)CC[C@@H]12 [DHEA, dehydroepiandrosterone]	neither agent alone was sufficient	caused immediate and significant prostatic hypertrophy	actually reversed	improve glucose tolerance	not found	not found	–	–	–	–	–	–	–
CN(C)C(=N)N=C(N)N [metformin]	neither agent alone was sufficient	–	–	–	–	–	very insufficient	universally well tolerated	well tolerated	well tolerated	not shown to either slow or reverse epigenetic aging	–	–
human growth hormone [GH]	–	–	–	–	–	–	–	–	–	–	–	peaks in the face of a constant or an increasing dose of GH or rise in IGF-1, and thereafter declines	rise in insulin
